Measured values published in patent US9630922B2, “3-spiro-7-hydroxamic acid tetralins as HDAC inhibitors” (Forma Therapeutics, Inc., priority 2015, dated 2017).

Target: T1, HDAC6 (Homo sapiens, UniProt Q9UBN7)
T1 construct: Full length human recombinant HDAC6 protein was expressed in baculoviral system; made in house; host or cells: baculoviral system
T1 sequence (Q9UBN7 1-1215): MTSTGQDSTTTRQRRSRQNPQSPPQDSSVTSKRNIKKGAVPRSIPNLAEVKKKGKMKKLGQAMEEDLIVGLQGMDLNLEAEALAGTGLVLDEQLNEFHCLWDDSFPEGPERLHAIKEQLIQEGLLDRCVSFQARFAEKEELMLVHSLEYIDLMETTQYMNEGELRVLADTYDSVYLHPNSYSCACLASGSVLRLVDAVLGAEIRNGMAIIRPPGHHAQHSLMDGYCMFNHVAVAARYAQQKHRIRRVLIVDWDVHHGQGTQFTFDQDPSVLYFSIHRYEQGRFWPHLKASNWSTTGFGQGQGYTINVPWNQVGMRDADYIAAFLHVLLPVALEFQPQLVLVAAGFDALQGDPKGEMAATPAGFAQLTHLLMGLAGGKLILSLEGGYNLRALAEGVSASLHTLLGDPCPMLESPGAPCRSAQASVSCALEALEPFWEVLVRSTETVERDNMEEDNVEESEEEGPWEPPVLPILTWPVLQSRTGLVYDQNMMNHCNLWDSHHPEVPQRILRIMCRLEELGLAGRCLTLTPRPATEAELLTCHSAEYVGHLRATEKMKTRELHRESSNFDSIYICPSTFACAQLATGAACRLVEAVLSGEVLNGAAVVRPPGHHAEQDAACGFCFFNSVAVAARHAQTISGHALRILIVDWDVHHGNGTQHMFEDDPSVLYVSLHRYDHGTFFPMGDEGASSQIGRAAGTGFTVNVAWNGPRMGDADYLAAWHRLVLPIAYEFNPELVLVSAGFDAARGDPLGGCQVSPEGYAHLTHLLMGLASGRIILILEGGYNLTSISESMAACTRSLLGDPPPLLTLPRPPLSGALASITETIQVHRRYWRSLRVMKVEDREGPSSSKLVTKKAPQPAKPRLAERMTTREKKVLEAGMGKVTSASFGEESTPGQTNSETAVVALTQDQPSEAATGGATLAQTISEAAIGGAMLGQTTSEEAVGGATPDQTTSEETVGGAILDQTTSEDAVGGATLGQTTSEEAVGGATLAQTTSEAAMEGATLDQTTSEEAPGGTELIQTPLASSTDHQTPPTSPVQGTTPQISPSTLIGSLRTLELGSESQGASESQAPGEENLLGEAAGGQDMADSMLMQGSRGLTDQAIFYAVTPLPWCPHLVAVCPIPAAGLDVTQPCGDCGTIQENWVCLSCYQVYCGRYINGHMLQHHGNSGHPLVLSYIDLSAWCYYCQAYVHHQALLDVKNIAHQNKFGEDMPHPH
Experiment: In vitro Histone Deacetylase Assay (enzymatic HDAC6 electrophoretic mobility shift assay)
Format: biochemical
Settings: full length human recombinant HDAC6, 1 nM enzyme, 2 μM peptide substrate RHKK(Ac)-NH2, 25° C.; read-out: HDAC6 activity range
Procedure: The enzymatic HDAC6 assay was performed using electrophoretic mobility shift assay. Full length human recombinant HDAC6 protein was expressed in baculoviral system and purified by affinity chromatography. The enzymatic reactions were assembled in 384 well plates in a total volume of 25 μL in a reaction buffer composing: 100 mM HEPES, pH7.5, 25 mM KCl, 0.1% bovine serum albumin, 0.01% Triton X-100, 1% DMSO (from compounds) 2 μM of the fluorescently labeled peptide substrate and enzyme. The enzyme was added at a final concentration of 1 nM. The peptide substrate RHKK(Ac)—NH2 was used. The compounds were tested at 12 concentrations spaced by 3× dilution intervals. Negative control samples (0%-inhibition in the absence of inhibitor) and positive control samples (100%-inhibition) were assembled in replicates of four in each assay plate. The reactions were incubated at 25° C. and quenched by the addition of 45 μL of termination buffer (100 mM HEPES, pH 7.5, 0.01% Triton X-100, 0.05% SDS).
The terminated assay plates were analyzed on LabChip® 3000 microfluidic electrophoresis instrument (Perkin Elmer/Caliper Life Sciences). The fluorescence intensity of the electrophoretically separated de-acetylated product and substrate peptide was measured. Activity in each sample was determined as the product to sum ratio (PSR): P/(S+P), where P is the peak height of the product peptide and S is the peak height of the substrate peptide. Percent inhibition (Pinh) is determined using the following equation:
Pinh=(PSR0%−PSRinh)/(PSR0%−PSR100%)*100, where PSRinh is the product sum ratio in the presence of inhibitor, PSR0% is the average product sum ration in the absence of inhibitor and PSR100% is the average product sum ratio in 100%-inhibition control samples. The IC50 values of inhibitors were determined by fitting the %-inhibition curves with 4 parameter dose-response model using XLfit 4 software.
As set forth in Table-31, below, IC50 values are defined as follows: IC50≦0.1 μM (+++); IC50>0.1 μM and ≦0.5 μM (++); IC50>0.5 μM (+).

With `COc1ccncc1N1CC[C@@]2(CCc3cc(C(=O)NO)ccc3C2)C1=O` [Compound I-142, (S)-N-hydroxy-1′-(4-methoxypyridin-3-yl)-2′-oxo-3,4-dihydro-1H-spiro[naphthalene-2,3′-pyrrolidine]-6-carboxamide] the IC50 was ≤ 100 nM.

`CC(C)CN1CCCC2(CCc3cc(C(=O)NO)ccc3C2)C1=O` (single isomer, unassigned) [Compound I-190] was tested, and the IC50 was ≤ 100 nM.

In the case of `Cn1cc(N2CC[C@@]3(CCc4cc(C(=O)NO)ccc4C3)C2=O)cn1` [Compound I-170, (S)-N-hydroxy-1′-(1-methyl-1H-pyrazol-4-yl)-2′-oxo-3,4-dihydro-1H-spiro[naphthalene-2,3-pyrrolidine]-6-carboxamide], the IC50 is reported as ≤ 100 nM.

In the case of `CC(C)N1CC[C@]2(CCc3cc(C(=O)NO)ccc3C2)C1=O` [Compound I-24, (R)-N-hydroxy-1′-isopropyl-2′-oxo-3,4-dihydro-1H-spiro[naphthalene-2,3′-pyrrolidine]-6-carboxamide], the IC50 is reported as ≤ 100 nM.

For `CC(C)CN1CCCC2(CCc3cc(C(=O)NO)ccc3C2)C1=O` (single isomer, unassigned) [Compound I-189], the IC50 was ≤ 100 nM.

For `COc1cc(F)cc(N2CC[C@@]3(CCc4cc(C(=O)NO)ccc4C3)C2=O)c1` [Compound I-148, (2S)-1′-(3-fluoro-5-methoxyphenyl)-N-hydroxy-2′-oxo-3,4-dihydro-1H-spiro[naphthalene-2,3′-pyrrolidine]-6-carboxamide], the IC50 was ≤ 100 nM.

`O=C(NO)c1ccc2c(c1)CC[C@@]1(CCN(c3cncc(Cl)c3)C1=O)C2` [Compound I-138, (S)-1′-(5-chloropyridin-3-yl)-N-hydroxy-2′-oxo-3,4-dihydro-1H-spiro[naphthalene-2,3′-pyrrolidine]-6-carboxamide] was tested, and the IC50 was ≤ 100 nM.

For `O=C(NO)c1ccc2c(c1)CC[C@@]1(CCCN(c3ccccc3)C1=O)C2` (single isomer, unassigned) [Compound I-181], the IC50 was ≤ 100 nM.

With `CN1CCCC2(CCc3cc(C(=O)NO)ccc3C2)C1=O` (stereo not drawn) [Compound I-178, N-hydroxy-1′-methyl-2′-oxo-3,4-dihydro-1H-spiro[naphthalene-2,3′-piperidine]-6-carboxamide] the IC50 was ≤ 100 nM.

`CN(C)c1ccc(N2CC[C@@]3(CCc4cc(C(=O)NO)ccc4C3)C2=O)cn1` [Compound I-152, (2S)-1′-[6-(dimethylamino)pyridin-3-yl]-N-hydroxy-2′-oxo-3,4-dihydro-1H-spiro[naphthalene-2,3′-pyrrolidine]-6-carboxamide] gave an IC50 of 100 to 500 nM.

For `O=C(NO)c1ccc2c(c1)CC[C@@]1(CCN(C3CCCC3)C1=O)C2` [Compound I-164, (S)-1′-cyclopentyl-N-hydroxy-2′-oxo-3,4-dihydro-1H-spiro[naphthalene-2,3′-pyrrolidine]-6-carboxamide], the IC50 was 100 to 500 nM.

In the case of `CC#CCN1CC[C@]2(CCc3cc(C(=O)NO)ccc3C2)C1=O` [Compound I-35, (R)-1′-(but-2-yn-1-yl)-N-hydroxy-2′-oxo-3,4-dihydro-1H-spiro[naphthalene-2,3′-pyrrolidine]-6-carboxamide], the IC50 is reported as ≤ 100 nM.

For `O=C(NO)c1ccc2c(c1)CC[C@@]1(CCN(c3ccccn3)C1=O)C2` [Compound I-21, (S)-N-hydroxy-2′-oxo-1′-(pyridin-2-yl)-3,4-dihydro-1H-spiro[naphthalene-2,3′-pyrrolidine]-6-carboxamide], the IC50 was ≤ 100 nM.

With `CCN1CCCC2(CCc3cc(C(=O)NO)ccc3C2)C1=O` (single isomer, unassigned) [Compound I-184] the IC50 was ≤ 100 nM.

`O=C(NO)c1ccc2c(c1)CC[C@@]1(CCN(Cc3cc(Cl)ccc3Cl)C1=O)C2` [Compound I-74, (S)-1′-(2,5-dichlorobenzyl)-N-hydroxy-2′-oxo-3,4-dihydro-1H-spiro[naphthalene-2,3′-pyrrolidine]-6-carboxamide] gave an IC50 of 100 to 500 nM.

With `COc1cncc(N2CC[C@@]3(CCc4cc(C(=O)NO)ccc4C3)C2=O)c1` [Compound I-144, (2S)-N-hydroxy-1′-(5-methoxypyridin-3-yl)-2′-oxo-3,4-dihydro-1H-spiro[naphthalene-2,3′-pyrrolidine]-6-carboxamide] the IC50 was ≤ 100 nM.

In the case of `O=C(NO)c1ccc2c(c1)CC[C@]1(CCN(c3cc(F)ccc3F)C1=O)C2` [Compound I-167, (R)-1′-(2,5-difluorophenyl)-N-hydroxy-2′-oxo-3,4-dihydro-1H-spiro[naphthalene-2,3'-pyrrolidine]-6-carboxamide], the IC50 is reported as ≤ 100 nM.

In the case of `Cc1ccncc1N1CC[C@@]2(CCc3cc(C(=O)NO)ccc3C2)C1=O` [Compound I-137, (S)-N-hydroxy-1′-(4-methylpyridin-3-yl)-2′-oxo-3,4-dihydro-1H-spiro[naphthalene-2,3′-pyrrolidine]-6-carboxamide], the IC50 is reported as ≤ 100 nM.

With `Cc1ncccc1N1CC[C@@]2(CCc3cc(C(=O)NO)ccc3C2)C1=O` [Compound I-132, (S)-N-hydroxy-1′-(2-methylpyridin-3-yl)-2′-oxo-3,4-dihydro-1H-spiro[naphthalene-2,3′-pyrrolidine]-6-carboxamide] the IC50 was ≤ 100 nM.

`CC(C)n1c(CN2CC[C@]3(CCc4cc(C(=O)NO)ccc4C3)C2=O)nc2ccccc21` [Compound I-45] was tested, and the IC50 was ≤ 100 nM.

With `O=C(NO)c1ccc2c(c1)CC[C@@]1(CCN(Cc3ccccc3OC(F)(F)F)C1=O)C2` [Compound I-69, (S)-N-hydroxy-2′-oxo-1′-(2-(trifluoromethoxy)benzyl)-3,4-dihydro-1H-spiro[naphthalene-2,3′-pyrrolidine]-6-carboxamide] the IC50 was 100 to 500 nM.

With `O=C(NO)c1ccc2c(c1)CC[C@]1(CCN(C/C=C/c3ccccc3)C1=O)C2` [Compound I-37, (R)-1′-cinnamyl-N-hydroxy-2′-oxo-3,4-dihydro-1H-spiro[naphthalene-2,3′-pyrrolidine]-6-carboxamide] the IC50 was ≤ 100 nM.

In the case of `O=C(NO)c1ccc2c(c1)CC[C@]1(CCN(Cc3ccccc3)C1=O)C2` [Compound I-50, (R)-1′-benzyl-N-hydroxy-2′-oxo-3,4-dihydro-1H-spiro[naphthalene-2,3′-pyrrolidine]-6-carboxamide], the IC50 is reported as ≤ 100 nM.

Work on `O=C(NO)c1ccc2c(c1)CCC1(CCN(c3cccnc3)C1=O)S2(=O)=O` (stereo not drawn) [Compound I-240, N-hydroxy-2-oxo-1-(pyridin-3-yl)spiro[pyrrolidine-3,2′-thiochromane]-6′-carboxamide 1′,1′-dioxide] yielded an IC50 of 100 to 500 nM.

In the case of `O=C(NO)c1ccc2c(c1)CC[C@]1(CCN(Cc3ccccc3C(F)(F)F)C1=O)C2` [Compound I-39, (R)-N-hydroxy-2′-oxo-1′-(2-(trifluoromethyl)benzyl)-3,4-dihydro-1H-spiro[naphthalene-2,3′-pyrrolidine]-6-carboxamide], the IC50 is reported as ≤ 100 nM.

With `O=C(NO)c1ccc2c(c1)CC[C@]1(CCN(Cc3ccc4ccccc4c3)C1=O)C2` [Compound I-58, (R)-N-hydroxy-1′-(naphthalen-2-ylmethyl)-2′-oxo-3,4-dihydro-1H-spiro[naphthalene-2,3′-pyrrolidine]-6-carboxamide] the IC50 was ≤ 100 nM.

In the case of `CN1CC2(CCc3cc(C(=O)NO)ccc3C2)CC1=O` (single isomer, unassigned) [Compound I-202], the IC50 is reported as ≤ 100 nM.
